“And” between values parts separate entries of the source, which are not always exact repeats. Identical values can stand only once. Like-named read-outs stand apart in the source and are kept apart here.
Experiments:
[1] = In vitro cytotoxicity with L-6 cells (resazurin); assay type: cell-based, rat; details: rat; L6 cells, 70 h + 2 h resazurin; mean ± absolute deviation
Experimental: Assays were performed in 96-well microtiter plates, each well containing 100 µl of RPMI 1640 medium supplemented with 1% L-glutamine (200 mM) and 10% fetal bovine serum, and 4000 L-6 cells (a primary cell line derived from rat skeletal myoblasts) ([Ahmed et al., 1994]). Serial drug dilutions of 11 three-fold dilution steps covering a range from 100 to 0.002 μg/ml were prepared 24 h post seeding L-6 cells. The plates were incubated for 70 h and inspected under an inverted microscope to assure growth of the controls and sterile conditions. 10 µl of resazurin was then added to each well and the plates incubated for another 2 h. Then the plates were read with a Spectramax Gemini XS microplate fluorometer (Molecular Devices Cooperation, Sunnyvale, CA, USA) using an excitation wavelength of 536 nm and an emission wavelength of 588 nm. The IC50 values were calculated by linear regression and four-parameter logistic regression from the sigmoidal dose inhibition curves using SoftmaxPro software (Molecular Devices Cooperation, Sunnyvale, CA, USA). Podophyllotoxin (Sigma P4405) was used as positive control. All assays were performed in two independent replicates at least. Activities of all compounds were expressed in µM using the formula: […]

[2] = tested on: P. falciparum NF54 erythrocytic stages; assay: Activity against Plasmodium falciparum (3H-hypoxanthine incorporation); assay type: cell-based; details: for Selectivity index (SI): IC50 in L6 cells divided by IC50 in P. falciparum: L6 cells vs P. falciparum NF54; for IC50: read-out: IC50 P. falciparum
Experimental: In vitro activity against the erythrocytic stages of P. falciparum was determined using a ^3H-hypoxanthine incorporation assay ([Desjardins et al., 1979]), using the drug sensitive NF54 strain ([Ponnudurai et al., 1981]). Compounds were dissolved in DMSO at 10 mg/ml and further diluted in medium before addition to parasite cultures incubated in RPMI 1640 medium without hypoxanthine, supplemented with HEPES (5.94 g/L), NaHCO3 (2.1 g/L), neomycin (100 U/ml), Albumax^R (5 g/L), and washed human red cells A^+ at 2.5% haematocrit (0.3% parasitemia). Serial drug dilutions of 11 three-fold dilution steps covering a range from 100 to 0.002 μg/ml were prepared. The 96-well plates were incubated in a humidified atmosphere at 37°C; 4% CO2, 3% O2, 93% N2. After 48 h, 50 μl of ^3H-hypoxanthine (=0.5 μCi) was added to each well of the plate. The plates were incubated for a further 24 h under the same conditions. The plates were then harvested with a Betaplate™ cell harvester (Wallac, Zurich, Switzerland), the red blood cells transferred onto a glass fibre filter, and lysed with distilled water. The dried filters were inserted into a plastic foil with 10 ml of scintillation fluid and counted in a Betaplate™ liquid scintillation counter (Wallac, Zurich, Switzerland). IC50 values were calculated from sigmoidal inhibition curves by linear regression using Microsoft Excel. Chloroquine (Sigma C6628) was used as control. Assays were performed in two independent replicates at least.

[3] = Cytotoxicity to macrophages determined in parallel to the intramacrophage assay; assay type: cell-based; details: CDI, surviving, uninfected mouse peritoneal macrophages
Experimental: (§1) Macrophages were isolated from the mouse (CDI) peritoneal cavity ([Zhang et al., 2008]) using 2% starch solution as eliciting agent injected 2 day prior to cell harvest. Animal work was carried out according to the rules and regulations for the protection of animal rights (“Tierschutzverordnung”) of the Swiss “Bundesamt für Veterinärwesen” (License number 2374). Mouse peritoneal macrophages (4 × 10^4 in 100 µL RPMI 1640 medium with 10% heat-inactivated FBS) were seeded into wells of a 96-well plate. After 24 h, 2 × 10^5 amastigote L. donovani in 100 µL were added. The amastigotes were taken from an axenic amastigote culture grown at pH 5.4. The medium containing free amastigote forms was removed after 24 h and replaced with fresh medium. The washing step was repeated and afterward the serial drug dilution was prepared with at least 6 dilution steps. Compounds were dissolved in DMSO at 10 mg/ml and further diluted in medium. After 96 h of incubation at 37°C under a 5% CO2 atmosphere, the medium was removed, and cells were fixed by adding 50 µl 4% formaldehyde solution followed by a staining with a 5 µM DRAQ5 solution. Plates were imaged in ImageXpress XLS (MD) microscope using a 20× air objective (635 nm excitation: 690/50 emission). 9 images were collected per well. Automated image analysis was performed with a script developed on Meta Xpress Software (MD). Three outputs were provided for each well: i) number of host cell nuclei; ii) numbers of infected and non-infected host cells; iii) number of parasite nuclei per infected host cell. The IC50 values were calculated based on the infection rate and the numbers of intracellular amastigotes. The cytotoxicity to macrophages was determined in parallel, and IC50 values were calculated based on the numbers of surviving, uninfected macrophages. Miltefosine was used as control. Assays were performed in two independent replicates at least.

[4] = tested on: T. b. rhodesiense STIB 900 bloodstream forms; assay: Activity against Trypanosoma brucei rhodesiense STIB900 (resazurin); assay type: cell-based; details: for Selectivity index (SI): IC50 in L6 cells divided by IC50 in T. b. rhodesiense: L6 cells vs T. b. rhodesiense STIB 900; for IC50: STIB 900 bloodstream forms, 70 h + resazurin, mean ± absolute deviation
Experimental: The stock was originally isolated from a patient and adapted to axenic culture conditions after several mouse passages and cloned. Minimum Essential Medium (50 µl) supplemented with 25 mM HEPES, 1 g/L additional glucose, 1% MEM non-essential amino acids (100×), 0.2 mM 2-mercaptoethanol, 1 mM Na-pyruvate ([Baltz et al., 1985]) and 15% heat inactivated horse serum was added to each well of a 96-well microtiter plate. Serial drug dilutions of eleven 3-fold dilution steps covering a range from 100 to 0.002 μg/ml were prepared. Then 4 × 10^3 bloodstream forms of T. b. rhodesiense STIB 900 in 50 µL were added to each well and the plate incubated for 70 h at 37°C and under a 5% CO2 atmosphere. 10 µL resazurin solution (resazurin, 12.5 mg in 100 ml double-distilled water) was then added to each well and incubation continued for a further 2–4 h ([Räz et al., 1997]). Plates were read with a Spectramax Gemini XS microplate fluorometer (Molecular Devices Cooperation, Sunnyvale, CA, USA) using an excitation wavelength of 536 nm and an emission wavelength of 588 nm. […] Melarsoprol (Arsobal Sanofi-Aventis, received from WHO) was used as control. Assays were performed in two independent replicates at least.

[5] = tested on: L. donovani amastigotes in mouse peritoneal macrophages; assay: Activity against Leishmania donovani intramacrophage amastigotes (high-content imaging); assay type: cell-based; details: amastigotes in mouse peritoneal macrophages, 96 h, read-out: IC50 L. donovani Intramacrophage
Experimental: as §1

[6] = tested on: L. donovani strain MHOM/ET/67/L82 axenic amastigotes; assay: Activity against Leishmania donovani axenic amastigotes (resazurin); assay type: cell-based; details: for Selectivity index (SI): IC50 in L6 cells divided by IC50 in L. donovani axenic amastigotes: L6 cells vs axenic L. donovani; for IC50: MHOM/ET/67/L82, pH 5.4, 70 h + 2 h resazurin, mean ± absolute deviation, at least two replicates, read-out: IC50 L. donovani Axenic
Experimental: Amastigotes of L. donovani strain MHOM/ET/67/L82 were grown under an atmosphere of 5% CO2 in air in axenic culture at 37°C in SM medium ([Cunningham, 1977]) at pH 5.4 supplemented with 10% heat-inactivated fetal bovine serum. 50 µL of culture medium was added in the wells of a 96-well plate and serial drug dilutions of eleven three-fold dilution steps covering a final range from 100 to 0.002 μg/ml were prepared. 50 µL culture medium with 2 × 10^5 amastigotes from axenic culture were added to each well. After 70 h of incubation the plates were inspected under an inverted microscope to assure growth of the controls and sterile conditions. 10 μl of resazurin (12.5 mg resazurin dissolved in 100 ml distilled water) were added to each well and the plates incubated for another 2 h. Then the plates were read with a Spectramax Gemini XS microplate fluorometer (Molecular Devices Cooperation, Sunnyvale, CA, USA) using an excitation wavelength of 536 nm and an emission wavelength of 588 nm. Data were analyzed using the software Softmax Pro (Molecular Devices Cooperation, Sunnyvale, CA, USA). Decrease of fluorescence (= inhibition) was expressed as percentage of the fluorescence of untreated control cultures and plotted against the drug concentrations. From the sigmoidal inhibition curves the IC50 values were calculated. Miltefosine was used as positive control drug. Assays were performed in two independent replicates at least.

[7] = NF54 drug sensitive strain, erythrocytic stages, 72 h, mean ± absolute deviation
[8] = Plasmodium falciparum, NF54, 72 h, NF54 drug sensitive strain, erythrocytic stages, 72 h, mean ± absolute deviation
[9] = Leishmania donovani, Peritoneal macrophage
[10] = Leishmania donovani, pH 5.4, axenic amastigotes

| Compound | IC50 [2, 7] | IC50 [2, 8] | IC50 ([4]; Trypanosoma brucei, 70 h) | IC50 [5, 9] | IC50 [6, 10] | IC50 ([2]; Plasmodium falciparum, NF54, 72 h) | IC50 at 70 h [1] | Selectivity index (SI): IC50 in L6 cells divided by IC50 in P. falciparum [2] | IC50 at 96 h [3] | Selectivity index (SI): IC50 in L6 cells divided by IC50 in T. b. rhodesiense [4] | Selectivity index (SI): IC50 in L6 cells divided by IC50 in L. donovani axenic amastigotes [6] | IC50 P. falciparum [2, 7] | IC50 [4] | IC50 [5] | IC50 ([6]; axenic amastigotes) |
| --- | --- | --- | --- | --- | --- | --- | --- | --- | --- | --- | --- | --- | --- | --- | --- |
| COc1cc([C@@H]2c3cc4c(cc3[C@H](O)[C@H]3COC(=O)[C@H]23)OCO4)cc(OC)c1OC [Podophyllotoxin, reference compound] | – | – | – | – | – | – | 0.03 ± 0.005 µM | – | – | – | – | – | – | – | – |
| COc1ccc(-c2oc3cc(O)cc(O)c3c(=O)c2OC)cc1OC [Compound 1, Quercetin-3,3′,4′-trimethylether] | – | 42.1 ± 12.5 µM | 55.1 ± 13.2 µM | > 79.9 µM | 15 to 22 µM | – | – | 4.4 | 154 ± 19.3 µM | 3.4 | 9.8 | – | – | – | – |
| CCN(CC)CCCC(C)Nc1ccnc2cc(Cl)ccc12 (centres unmarked) [Chloroquine, reference compound] | – | – | – | – | – | 0.01 ± 0.002 µM | – | – | – | – | – | – | – | – | – |
| (+)-(7S,7′S,8R,8′R)-Pinoresinol [Compound 10] | > 140 µM | – | – | – | – | – | – | – | – | 2.1 | 1.6 | least active | 116.8 ± 0.3 µM | > 279 µM | > 150 µM and 151 µM |

More lines, main results first:

| IC50 [2, 7] | IC50 [2, 8] | IC50 ([4]; Trypanosoma brucei, 70 h) | IC50 [5, 9] | IC50 [6, 10] | IC50 ([2]; Plasmodium falciparum, NF54, 72 h) | Compound | IC50 at 70 h [1] | Selectivity index (SI): IC50 in L6 cells divided by IC50 in P. falciparum [2] | IC50 at 96 h [3] | Selectivity index (SI): IC50 in L6 cells divided by IC50 in T. b. rhodesiense [4] | Selectivity index (SI): IC50 in L6 cells divided by IC50 in L. donovani axenic amastigotes [6] | IC50 P. falciparum [2, 7] | IC50 [4] | IC50 [5] | IC50 ([6]; axenic amastigotes) |
| --- | --- | --- | --- | --- | --- | --- | --- | --- | --- | --- | --- | --- | --- | --- | --- |
| 7.8 ± 0.9 µM | 7 to 8 µM | 11.2 ± 0.2 µM | > 95.9 µM | 8.2 ± 1.6 µM | – | COc1cc(O)c2c(=O)c(OC)c(-c3ccc(OC)c(O)c3)oc2c1 [Compound 2, Ayanin] | – | 12.9 | 128 ± 3.5 µM | 8.9 | 12.2 | – | – | – | – |
| 7.3 ± 0.6 µM | 7 to 8 µM | 2.4 ± 0.5 µM | > 66.7 µM | 4.5 ± 0.3 µM | – | COc1cc(O)c2c(=O)c(OC)c(-c3ccc(O)c(O)c3)oc2c1 [Compound 6, Quercetin-3,7-dimethylether] | – | 7.6 | 102 ± 49.7 µM | 23.2 | 12.3 | – | – | – | – |

From publication PMC7456963, “HPLC-Based Activity Profiling for Antiprotozoal Compounds in Croton gratissimus and Cuscuta hyalina” (Frontiers in Pharmacology, 2020)
